Measured values: publication PMC6952103, “Biochemical characterization of Ty1 retrotransposon protease” (PLoS ONE, 2020)
Where “and” joins values, the source holds several entries; their conditions need not be identical. Equal values may be shown once. Entries after “also recorded” stand apart in the source; their conditions may differ. Read-outs that look alike come from different tables or passages of the source.

Tests used:
XMRV PR = conditions: cited from earlier work
Description: (§1) Despite the fact that out of the tested inhibitors only acet ...

Ty1 PR-His6 [1] = molecular target: T1, Ty1 PR-His6 (Saccharomyces cerevisiae, UniProt Q07793); test: Inhibition study of Ty1 PR-His6; format: biochemical; conditions: Ty1 PR-His6 (400–1600 nM), VPTIN*NVHTS 0.44 mM, inhibitor ≥100 nM final, DMSO, peptide buffer A, 2 h at 30°C
T1 construct: made in house; host or cells: E. coli BL21(DE3), pET11a Gag-PR-His6 (gift of J.F. Lawler); soluble fraction, Ni-chelate chromatography, autoprocessed
T1 sequence (Q07793 402-582 limits assumed): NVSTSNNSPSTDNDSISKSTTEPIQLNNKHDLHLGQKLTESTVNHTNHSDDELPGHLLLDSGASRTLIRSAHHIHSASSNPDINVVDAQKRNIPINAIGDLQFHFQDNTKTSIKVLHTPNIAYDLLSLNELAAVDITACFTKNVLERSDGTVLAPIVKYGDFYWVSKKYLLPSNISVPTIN
Procedure: Ty1 PR-His6 activity was measured in the presence of various HIV-1 protease inhibitors. […] To study effect of inhibitors on proteolytic activity, reaction mixtures contained 5 μl purified Ty1 PR-His6 (400–1600 nM), 10 μl peptide buffer A, 4.8 μl oligopeptide substrate (VPTIN*NVHTS, 0.44 mM), and 0.2 μl inhibitor. For screening, inhibitors were dissolved in DMSO to have ≥100 nM final concentration. DMSO solution containing no inhibitor was used as control. Reaction mixtures were incubated for 2 h at 30°C.

HIV-1 PR = conditions: cited from earlier work
Description: For instance, the optimal pH of HFV protease is 6.6–6.8 [40] while that of HIV-1 PR is between 4 and 6 [41]. […] Higher sensitivity to urea implies lower dimer stability for Ty1 protease, the possible structural background of this difference is discussed later in the In silico structural analysi ... || (+ 1 further places)

HFV PR = conditions: ref [40], cited from earlier work; for kcat/Km: buffer optimized for that protease
Description: Similarly low catalytic activities were also observed previously for HFV and the Gag-encoded Avian myeloblastosis virus (AMV) proteases. Both the untagged, and the His6-tagged (self-processed) PRs cleaved th ...

Ty1 PR = molecular target: T2, Ty1 PR (Saccharomyces cerevisiae, UniProt Q07793); test: Oligopeptide-based proteolytic assay (HPLC), untagged Ty1 PR; format: biochemical; conditions: peptide buffer A pH 7.0, 30 °C; for cleavage (in words): Ty1 PR, oligopeptide substrate 2 mg/ml stock, 2 up to 5 h
T2 construct: the protease domain of Ty1 is unusually long, consisting of 181 residues; made in house; host or cells: E. coli BL21(DE3), pET11a
T2 sequence (Q07793 402-582 limits assumed): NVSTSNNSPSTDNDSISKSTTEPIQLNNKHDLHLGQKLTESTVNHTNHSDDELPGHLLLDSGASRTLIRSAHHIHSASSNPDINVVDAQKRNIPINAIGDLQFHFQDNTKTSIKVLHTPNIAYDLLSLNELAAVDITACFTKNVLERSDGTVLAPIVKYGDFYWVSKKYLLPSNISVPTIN
Procedure: (§2) The oligopeptides used in the proteolytic assays (Table 1A) were synthesized as previously described. Reaction mixtures contained 10 μl peptide buffer A (20 mM PIPES, 100 mM NaCl, 0.5% Nonidet P-40, 10% glycerol, 2 mM dithiotreitol (DTT), pH 7.0), 5 μl purified Ty1 PR-His6 (processed from Ty1 Gag-PR-His6) or Ty1 PR, and 5 μl oligopeptide substrate (2 mg/ml) dissolved in water. Reaction mixtures were incubated for the different experiments from 2 up to 5 h at 30°C. The reactions were stopped by the addition of 180 μl 1% trifluoroacetic acid (TFA).
(§3) The products were separated by an HPLC-based method using a 0–100% water-acetonitrile gradient in the presence of TFA on Merck Hitachi instrument. For enzyme kinetic measurements, VPTIN*NVHTS oligopeptide substrate (representing Ty1 PR/IN cleavage site) was used at 0.2–1.2 mM; Ty1 PR (400–1600 nM) was incubated with the substrate at 30 °C for 2 h, whereas Ty1 PR-His6 (500–1500 nM) was incubated for 2.5 h. Kinetic parameters (shown in Table 1A) were determined by fitting the data obtained at less than 20% substrate hydrolysis to the Michaelis-Menten equation using GraphPad Prism version 5.00 for Windows (GraphPad Software, La Jolla California USA, www.graphpad.com). Statistical significances were determined by GraphPad QuickCalcs (https://www.graphpad.com/quickcalcs/ttest2).
(§4) For investigation of optimal conditions for enzyme folding, Ty1 PR was dialyzed against various buffers and buffer combinations that have been shown previously to be suitable for retroviral protease activity. In peptide-based assays, both protease and oligopeptide solutions were added to the buffer, and the reaction mixtures were incubated at 30°C, and stopped by the addition TFA. The mixtures were then injected onto a reversed-phase chromatography column in order to separate substrates and cleavage products, the substrate turnover was determined by integration of peak areas.

Ty1 PR-His6 [2] = molecular target: T1, Ty1 PR-His6; test: Oligopeptide-based proteolytic assay (HPLC), Ty1 PR-His6; format: biochemical; conditions: for cleavage (in words): Ty1 PR-His6, oligopeptide substrate 2 mg/ml stock, 2 up to 5 h
Procedure: as §2, §3, §4

[3] = molecular target: Copia transposon protease; conditions: ref [17]; cited from earlier work
Description: as §1

[4] = test system: Copia transposon protease; conditions: ref [17], cited from earlier work
Procedure: The dependence of enzyme activity on ionic strength was studied, and highest activities were measured at 1.5–2 M NaCl concentration (Fig 4A). […] For instance, the optimal pH of HFV protease is 6.6–6.8 [40] while that of HIV-1 PR is between 4 and 6 [41].

[5] = peptide buffer A pH 7.0, 30 °C, HPLC
[6] = Ty1 PR (400–1600 nM), substrate 0.2–1.2 mM, 2 h, SD (n≥2)
[7] = Ty1 PR-His6 (500–1500 nM), substrate 0.2–1.2 mM, peptide buffer A pH 7.0, 30 °C, 2.5 h, HPLC, SD (n≥2)

Molecule: O=C1N(Cc2ccc(CO)cc2)[C@H](Cc2ccccc2)[C@H](O)[C@@H](O)[C@@H](Cc2ccccc2)N1Cc1ccc(CO)cc1 [DMP-323]
- inhibition (in words) (XMRV PR; ref [45]): able to inhibit
- inhibition of proteolytic activity (in words) (Ty1 PR-His6 [1]): unable to inhibit

Molecule: T26S mutant HIV-1 protease
- specific activity compared to wild-type (in words) (HIV-1 PR; T26S mutant, ref [49]): lower specific activity

Molecule: Cc1c(O)cccc1C(=O)N[C@@H](CSc1ccccc1)[C@H](O)CN1C[C@H]2CCCC[C@H]2C[C@H]1C(=O)NC(C)(C)C [nelfinavir]
- inhibition of proteolytic activity (in words) (Ty1 PR-His6 [1]): unable to inhibit

Molecule: COC(=O)N[C@H](C(=O)N[C@@H](Cc1ccccc1)[C@@H](O)CN(Cc1ccc(-c2ccccn2)cc1)NC(=O)[C@@H](NC(=O)OC)C(C)(C)C)C(C)(C)C [atazanavir]
- inhibition (in words) (XMRV PR; ref [45]): able to inhibit
- inhibition of proteolytic activity (in words) (Ty1 PR-His6 [1]): unable to inhibit

Molecule: IHLIA*AVKAV [synthetic oligopeptide substrate representing the IN/RT cleavage site of Ty1]
- kcat/Km (HFV PR): 2 ± 0.4 M⁻¹ s⁻¹
- Km (HFV PR): 1000 ± 160 µM
- kcat (HFV PR): 0.0020 ± 0.0002 s⁻¹
- cleavage (in words) (Ty1 PR): no cleavage was observed
- cleavage (in words) (Ty1 PR-His6 [2]; [5]): no cleavage was observed

Molecule: HIV-1 PR: human immunodeficiency virus type 1 protease
- activity at 37°C (in words) (HIV-1 PR; HIV-1 PR, 37°C, ref [41]): highly active
- UC50 (urea) (HIV-1 PR; HIV-1 PR, ref [29]): 1.47 M

Molecule: CC(C)(C)NC(=O)[C@@H]1C[C@@H]2CCCC[C@@H]2CN1C[C@@H](O)[C@H](Cc1ccccc1)NC(=O)[C@H](CC(N)=O)NC(=O)c1ccc2ccccc2n1 [saquinavir]
- inhibition of proteolytic activity (in words) (Ty1 PR-His6 [1]): unable to inhibit

Molecule: Cc1cccc(C)c1OCC(=O)N[C@@H](Cc1ccccc1)[C@@H](O)C[C@H](Cc1ccccc1)NC(=O)[C@H](C(C)C)N1CCCNC1=O [lopinavir]
- inhibition (in words) (XMRV PR; ref [45]): able to inhibit
- inhibition of proteolytic activity (in words) (Ty1 PR-His6 [1]): unable to inhibit

Molecule: CC(C)CN(C[C@@H](O)[C@H](Cc1ccccc1)NC(=O)O[C@H]1CCOC1)S(=O)(=O)c1ccc(N)cc1 [amprenavir]
- inhibition (in words) (XMRV PR; ref [45]): able to inhibit
- inhibition of proteolytic activity (in words) (Ty1 PR-His6 [1]): unable to inhibit

Molecule: TARAH*NVSTS [synthetic oligopeptide substrate representing the Gag/PR cleavage site of Ty1]
- hydrolysis (in words) (HFV PR): not hydrolyzed
- cleavage (in words) (Ty1 PR): no cleavage was observed
- cleavage (in words) (Ty1 PR-His6 [2]; [5]): no cleavage was observed

Molecule: VPTIN*NVHTS [synthetic oligopeptide substrate representing the PR/IN cleavage site of Ty1]
- kcat/Km (HFV PR): 7 M⁻¹ s⁻¹ and 7 ± 2.4 M⁻¹ s⁻¹
- Km (HFV PR): 30 ± 10 µM
- kcat (HFV PR): 0.0002 ± 0.00003 s⁻¹
- Km (Ty1 PR; [6]): 210 ± 70 µM
- kcat (Ty1 PR; [6]): 0.006 ± 0.001 s⁻¹
- kcat/Km (Ty1 PR; [6]): 28 ± 10.5 M⁻¹ s⁻¹
- cleavage (in words) (Ty1 PR): cleaved
- Km (Ty1 PR-His6 [2]; [7]): 250 ± 90 µM
- kcat (Ty1 PR-His6 [2]; [7]): 0.009 ± 0.001 s⁻¹
- kcat/Km (Ty1 PR-His6 [2]; [7]): 36 ± 13.2 M⁻¹ s⁻¹
- cleavage (in words) (Ty1 PR-His6 [2]; [5]): cleaved
- difference of specificity constants between untagged Ty1 PR and Ty1 PR-His6 (in words) (Ty1 PR-His6 [2]; Ty1 PR-His6 versus untagged Ty1 PR): not significant statistically

Molecule: CC(C)CN(C[C@@H](O)[C@H](Cc1ccccc1)NC(=O)O[C@H]1CO[C@H]2OCC[C@H]21)S(=O)(=O)c1ccc(N)cc1 [darunavir]
- inhibition (in words) (XMRV PR; ref [45]): able to inhibit
- inhibition of proteolytic activity (in words) (Ty1 PR-His6 [1]): unable to inhibit

Molecule: pepstatin A
- inhibition (in words) (XMRV PR; ref [29]): weak inhibitors
- Ki [3]: 15 nM
- inhibition of proteolytic activity (in words) (Ty1 PR-His6 [1]): no inhibitory potential; also recorded: unable for the inhibition

Molecule: CCC[C@@]1(CCc2ccccc2)CC(O)=C([C@H](CC)c2cccc(NS(=O)(=O)c3ccc(C(F)(F)F)cn3)c2)C(=O)O1 [tipranavir]
- inhibition (in words) (XMRV PR; ref [45]): able to inhibit
- inhibition of proteolytic activity (in words) (Ty1 PR-His6 [1]): unable to inhibit

B1: Copia transposon protease: Copia transposon protease of D. melanogaster (protein, UniProt P04146 271-1409, looked up)
Copia protease: IAFMVKEVNNTSVMDNCGFVLDSGASDHLINDESLYTDSVEVVPPLKIAVAKQGEFIYATKRGIVRLRNDHEITLEDVLFCKEAAGNLMSVKRLQEAGMSIEFDKSGVTISKNGLMVVKNSGMLNNVPVINFQAYSINAKHKNNFRLWHERFGHISDGKLLEIKRKNMFSDQSLLNNLELSCEICEPCLNGKQARLPFKQLKDKTHIKRPLFVVHSDVCGPITPVTLDDKNYFVIFVDQFTHYCVTYLIKYKSDVFSMFQDFVAKSEAHFNLKVVYLYIDNGREYLSNEMRQFCVKKGISYHLTVPHTPQLNGVSERMIRTITEKARTMVSGAKLDKSFWGEAVLTATYLINRIPSRALVDSSKTPYEMWHNKKPYLKHLRVFGATVYVHIKNKQGKFDDKSFKSIFVGYEPNGFKLWDAVNEKFIVARDVVVDETNMVNSRAVKFETVFLKDSKESENKNFPNDSRKIIQTEFPNESKECDNIQFLKDSKESENKNFPNDSRKIIQTEFPNESKECDNIQFLKDSKESNKYFLNESKKRKRDDHLNESKGSGNPNESRESETAEHLKEIGIDNPTKNDGIEIINRRSERLKTKPQISYNEEDNSLNKVVLNAHTIFNDVPNSFDEIQYRDDKSSWEEAINTELNAHKINNTWTITKRPENKNIVDSRWVFSVKYNELGNPIRYKARLVARGFTQKYQIDYEETFAPVARISSFRFILSLVIQYNLKVHQMDVKTAFLNGTLKEEIYMRLPQGISCNSDNVCKLNKAIYGLKQAARCWFEVFEQALKECEFVNSSVDRCIYILDKGNINENIYVLLYVDDVVIATGDMTRMNNFKRYLMEKFRMTDLNEIKHFIGIRIEMQEDKIYLSQSAYVKKILSKFNMENCNAVSTPLPSKINYELLNSDEDCNTPCRSLIGCLMYIMLCTRPDLTTAVNILSRYSSKNNSELWQNLKRVLRYLKGTIDMKLIFKKNLAFENKIIGYVDSDWAGSEIDRKSTTGYLFKMFDFNLICWNTKRQNSVAASSTEAEYMALFEAVREALWLKFLLTSINIKLENPIKIYEDNQGCISIANNPSCHKRAKHIDIKYHFAREQVQNNVICLEYIPTENQLADIFTKPLPAARFVELRDKLGLLQDDQSNAE
modifications: Copia protease
notes: Copia transposon protease of D. melanogaster
- relative activity ([4]; 20–70°C temperature range): ≥ 50%
- NaCl concentration of highest activity ([4]; Copia transposon protease): 2 M
- pH at which synthetic substrate is cleaved most efficiently ([4]; Copia transposon protease): 4.0
- temperature of highest activity ([4]; Copia transposon protease): 70 °C
